Laboratory results as given in the NIST ThermoML archive (doi:10.1016/j.jct.2017.07.008).
Numbers after ± are expanded uncertainties.

Conditions: for mass density / viscosity / speed of sound / vapor or sublimation pressure: Liquid; for mass density: Vibrating tube method; for surface tension liquid-gas: Drop volume; for viscosity: Capillary tube (Ostwald / Ubbelohde) method; for speed of sound: Frequency=3 MHz, Single path-length method; for vapor or sublimation pressure: Ebulliometric method (Recirculating still)

**Q.** For `O=Cc1cccs1` [2-thiophenealdehyde], which mass density (333.15 K, 2000 kPa) is on record?
**A.** 1183.41 ± 0.57 kg/m3

**Q.** What about the mass density (333.15 K, 5000 kPa) of the same molecule?
**A.** 1185.56 ± 0.58 kg/m3

**Q.** And the mass density (333.15 K, 7000 kPa)?
**A.** 1186.96 ± 0.58 kg/m3

**Q.** What about the mass density (333.15 K, 10000 kPa) of the same molecule?
**A.** 1189.04 ± 0.6 kg/m3

**Q.** What about the mass density (333.15 K, 15000 kPa) of the same molecule?
**A.** 1192.42 ± 0.62 kg/m3

**Q.** And the mass density (333.15 K, 20000 kPa)?
**A.** 1195.69 ± 0.64 kg/m3

**Q.** What about the mass density (333.15 K, 25000 kPa) of the same molecule?
**A.** 1198.86 ± 0.67 kg/m3

**Q.** And the mass density (333.15 K, 30000 kPa)?
**A.** 1201.94 ± 0.69 kg/m3

**Q.** What about the mass density (333.15 K, 35000 kPa) of the same molecule?
**A.** 1204.93 ± 0.72 kg/m3

**Q.** What about the mass density (333.15 K, 40000 kPa) of the same molecule?
**A.** 1207.85 ± 0.75 kg/m3

**Q.** And the mass density (333.15 K, 45000 kPa)?
**A.** 1210.68 ± 0.79 kg/m3

**Q.** And the mass density (333.15 K, 50000 kPa)?
**A.** 1213.45 ± 0.82 kg/m3

**Q.** What about the mass density (333.15 K, 55000 kPa) of the same molecule?
**A.** 1216.14 ± 0.86 kg/m3

**Q.** What about the mass density (333.15 K, 60000 kPa) of the same molecule?
**A.** 1218.77 ± 0.89 kg/m3

**Q.** And the mass density (333.15 K, 65000 kPa)?
**A.** 1221.34 ± 0.93 kg/m3

**Q.** And the surface tension liquid-gas (335.65 K)?
**A.** 41.46 ± 0.31 mN/m

**Q.** And the viscosity (335.65 K, 100 kPa)?
**A.** 1.155 ± 0.014 mPa·s

**Q.** What about the speed of sound (335.65 K, 100 kPa) of the same molecule?
**A.** 1338.2 ± 0.95 m/s

**Q.** What about the mass density (335.65 K, 100 kPa) of the same molecule?
**A.** 1179.49 ± 0.56 kg/m3

**Q.** And the “vapor or sublimation pressure” value (336.42 K)?
**A.** 0.66 ± 0.1 kPa

**Q.** What about the surface tension liquid-gas (338.15 K) of the same molecule?
**A.** 41.21 ± 0.31 mN/m

**Q.** What about the viscosity (338.15 K, 100 kPa) of the same molecule?
**A.** 1.121 ± 0.014 mPa·s

**Q.** And the speed of sound (338.15 K, 100 kPa)?
**A.** 1330.2 ± 0.95 m/s

**Q.** And the mass density (338.15 K, 100 kPa)?
**A.** 1176.97 ± 0.56 kg/m3

**Q.** What about the mass density (338.15 K, 2000 kPa) of the same molecule?
**A.** 1178.39 ± 0.57 kg/m3

**Q.** What about the mass density (338.15 K, 5000 kPa) of the same molecule?
**A.** 1180.59 ± 0.58 kg/m3

**Q.** What about the mass density (338.15 K, 7000 kPa) of the same molecule?
**A.** 1182.03 ± 0.58 kg/m3

**Q.** What about the mass density (338.15 K, 10000 kPa) of the same molecule?
**A.** 1184.16 ± 0.59 kg/m3

**Q.** What about the mass density (338.15 K, 15000 kPa) of the same molecule?
**A.** 1187.61 ± 0.61 kg/m3

**Q.** What about the mass density (338.15 K, 20000 kPa) of the same molecule?
**A.** 1190.94 ± 0.64 kg/m3

**Q.** What about the mass density (338.15 K, 25000 kPa) of the same molecule?
**A.** 1194.18 ± 0.66 kg/m3

**Q.** What about the mass density (338.15 K, 30000 kPa) of the same molecule?
**A.** 1197.32 ± 0.69 kg/m3

**Q.** And the mass density (338.15 K, 35000 kPa)?
**A.** 1200.37 ± 0.72 kg/m3

**Q.** And the mass density (338.15 K, 40000 kPa)?
**A.** 1203.34 ± 0.75 kg/m3

**Q.** And the mass density (338.15 K, 45000 kPa)?
**A.** 1206.23 ± 0.78 kg/m3

**Q.** What about the mass density (338.15 K, 50000 kPa) of the same molecule?
**A.** 1209.04 ± 0.81 kg/m3

**Q.** What about the mass density (338.15 K, 55000 kPa) of the same molecule?
**A.** 1211.78 ± 0.85 kg/m3

**Q.** What about the mass density (338.15 K, 60000 kPa) of the same molecule?
**A.** 1214.46 ± 0.88 kg/m3

**Q.** What about the mass density (338.15 K, 65000 kPa) of the same molecule?
**A.** 1217.07 ± 0.92 kg/m3

**Q.** And the “vapor or sublimation pressure” value (340.7 K)?
**A.** 0.85 ± 0.1 kPa

**Q.** What about the “vapor or sublimation pressure” value (345.63 K) of the same molecule?
**A.** 1.135 ± 0.1 kPa

**Q.** And the “vapor or sublimation pressure” value (349.65 K)?
**A.** 1.4 ± 0.1 kPa

**Q.** And the “vapor or sublimation pressure” value (353.7 K)?
**A.** 1.725 ± 0.1 kPa

**Q.** And the “vapor or sublimation pressure” value (356.19 K)?
**A.** 1.915 ± 0.1 kPa

**Q.** And the “vapor or sublimation pressure” value (359.55 K)?
**A.** 2.265 ± 0.1 kPa

**Q.** What about the “vapor or sublimation pressure” value (361.67 K) of the same molecule?
**A.** 2.55 ± 0.1 kPa

**Q.** And the “vapor or sublimation pressure” value (364.68 K)?
**A.** 2.925 ± 0.1 kPa

**Q.** And the “vapor or sublimation pressure” value (366.94 K)?
**A.** 3.265 ± 0.1 kPa

**Q.** What about the “vapor or sublimation pressure” value (368.98 K) of the same molecule?
**A.** 3.6 ± 0.1 kPa

**Q.** And the “vapor or sublimation pressure” value (372.07 K)?
**A.** 4.14 ± 0.1 kPa

**Q.** What about the “vapor or sublimation pressure” value (374.68 K) of the same molecule?
**A.** 4.645 ± 0.1 kPa

**Q.** What about the “vapor or sublimation pressure” value (376.79 K) of the same molecule?
**A.** 5.065 ± 0.1 kPa

**Q.** And the “vapor or sublimation pressure” value (377.74 K)?
**A.** 5.3 ± 0.1 kPa

**Q.** And the “vapor or sublimation pressure” value (379.92 K)?
**A.** 5.8 ± 0.1 kPa

**Q.** What about the “vapor or sublimation pressure” value (382.69 K) of the same molecule?
**A.** 6.5 ± 0.1 kPa

**Q.** And the “vapor or sublimation pressure” value (386.72 K)?
**A.** 7.585 ± 0.1 kPa

**Q.** And the “vapor or sublimation pressure” value (389.41 K)?
**A.** 8.415 ± 0.1 kPa

**Q.** What about the “vapor or sublimation pressure” value (391.94 K) of the same molecule?
**A.** 9.285 ± 0.1 kPa

**Q.** And the “vapor or sublimation pressure” value (394.82 K)?
**A.** 10.41 ± 0.1 kPa

**Q.** What about the “vapor or sublimation pressure” value (399.42 K) of the same molecule?
**A.** 12.29 ± 0.1 kPa

**Q.** And the “vapor or sublimation pressure” value (401.02 K)?
**A.** 13.11 ± 0.1 kPa

**Q.** And the “vapor or sublimation pressure” value (403 K)?
**A.** 14.06 ± 0.1 kPa

**Q.** What about the “vapor or sublimation pressure” value (404.9 K) of the same molecule?
**A.** 15.05 ± 0.1 kPa

**Q.** What about the “vapor or sublimation pressure” value (407.06 K) of the same molecule?
**A.** 16.14 ± 0.1 kPa

**Q.** What about the “vapor or sublimation pressure” value (408.95 K) of the same molecule?
**A.** 17.25 ± 0.1 kPa

**Q.** And the “vapor or sublimation pressure” value (411.16 K)?
**A.** 18.6 ± 0.1 kPa

**Q.** What about the “vapor or sublimation pressure” value (412.82 K) of the same molecule?
**A.** 19.66 ± 0.1 kPa

**Q.** And the “vapor or sublimation pressure” value (413.9 K)?
**A.** 20.41 ± 0.1 kPa

**Q.** What about the “vapor or sublimation pressure” value (415.91 K) of the same molecule?
**A.** 21.8 ± 0.11 kPa

**Q.** And the “vapor or sublimation pressure” value (418.01 K)?
**A.** 23.36 ± 0.11 kPa

**Q.** And the “vapor or sublimation pressure” value (420.05 K)?
**A.** 24.95 ± 0.11 kPa

**Q.** And the “vapor or sublimation pressure” value (422.07 K)?
**A.** 26.6 ± 0.11 kPa

**Q.** And the “vapor or sublimation pressure” value (424.04 K)?
**A.** 28.25 ± 0.11 kPa

**Q.** And the “vapor or sublimation pressure” value (426.15 K)?
**A.** 30.11 ± 0.11 kPa

**Q.** And the “vapor or sublimation pressure” value (428.14 K)?
**A.** 32.01 ± 0.11 kPa

**Q.** And the “vapor or sublimation pressure” value (429.02 K)?
**A.** 32.92 ± 0.11 kPa

**Q.** What about the “vapor or sublimation pressure” value (430.17 K) of the same molecule?
**A.** 34.05 ± 0.11 kPa

**Q.** And the “vapor or sublimation pressure” value (431.54 K)?
**A.** 35.47 ± 0.11 kPa

**Q.** What about the “vapor or sublimation pressure” value (433.17 K) of the same molecule?
**A.** 37.2 ± 0.11 kPa
